Counter-ions that a name gives are not always drawn.
How the values were obtained:
Type in all cases: physicochemical
[1] = Deliquescence on standing at 60% RH and 25° C.; details: left in an environment of 60% RH and 25° C.; initially white powder
Procedure: In reference to the description on page 56 in Patent Literature 1 (International Publication No. WO2017/135472), the compound 10-BoC was deprotected. Specifically, the compound 10-BoC was dissolved in ethyl acetate and the reaction liquid was cooled to 5° C. After that, a hydrochloric acid/ethyl acetate solution was added dropwise thereto, followed by stirring at 20° C. for 16 hours. After that, the solid was filtered out and dried under reduced pressure to obtain a compound 16-HCl (a hydrochloric acid salt of the compound 16). The obtained compound was initially white powder, but when left in an environment of 60% RH and 25° C., was completely deliquesced within 24 hours.

[2] = Measurement of solubility at pH 6.9 (saturated solution, HPLC); details: second dissolution test solution (pH 6.9), shaken at 20° C. for 24 hours, filtrate determined by HPLC
Procedure: Specifically, the crystal B can achieve a solubility at pH 6.9 of 50 μg/ml or more. Here, the solubility at pH 6.9 is measured by HPLC analysis. Specifically, the solubility at pH 6.9 can be measured in the method described below in Examples.
Regarding the crystals B and C, the solubility at pH 6.9 was measured. Specifically, a sample was excessively added to a second dissolution test solution (pH 6.9) (manufactured by Kanto Chemical Co., Inc.), and the mixture was shaken at 20° C. for 24 hours to produce a saturated solution. After the undissolved sample was removed with a filter, the amount of the compound in the filtrate was determined by HPLC, and the solubility […] was calculated.

[3] = Measurement of moisture absorption (automatic gas and vapor adsorption analyzer); details: BELSORP Aqua3 automatic gas and vapor adsorption analyzer
Procedure: Regarding the crystals B and C, the moisture absorption was measured by using an automatic gas and vapor adsorption analyzer (BELSORP Aqua3 manufactured by MicrotracBEL Corp.)

time until completely deliquesced [1] | solubility at pH 6.9 [2] | moisture absorption (at maximum) [3] | SMILES
≤ 24 h |  |  | Cc1cc(=O)n(-c2ccc(C[C@H](N)C(=O)OCC(C)C)cn2)c(=O)n1C [compound 16-HCl]
 | 25.0 μg/ml | ≤ 0.24% | Cc1cc(=O)n(-c2ccc(C[C@H](NC(=O)c3cc(F)c(NS(=O)(=O)c4ccc(NC(=O)C(C)(C)C)cc4)cc3F)C(=O)OCC(C)C)cn2)c(=O)n1C [crystal C, isobutyl(S)-2-(2,5-difluoro-4-((4-pivalamidophenyl)sulfonamido)benzamide)-3-(6-(3,4-dimethyl-2,6-dioxo-3,6-dihydropyrimidin-1(2H)-yl)pyridin-3-yl)propanoate]
 | 150 μg/ml | ≤ 1.35% | Cc1cc(=O)n(-c2ccc(C[C@H](NC(=O)c3cc(F)c(NS(=O)(=O)c4ccc(NC(=O)C(C)(C)C)cc4)cc3F)C(=O)OCC(C)C)cn2)c(=O)n1C [crystal B, isobutyl(S)-2-(2,5-difluoro-4-((4-pivalamidophenyl)sulfonamido)benzamide)-3-(6-(3,4-dimethyl-2,6-dioxo-3,6-dihydropyrimidin-1(2H)-yl)pyridin-3-yl)propanoate]

Source: patent US20240262805A1, “METHOD FOR PRODUCING COMPOUND OR PHARMACEUTICALLY ACCEPTABLE SALT THEREOF” (EA PHARMA CO., LTD., priority 2021, published 2024)
